Data taken from EP1862466A2, “Arrays with cleavable linkers” (THE SCRIPPS RESEARCH INSTITUTE, priority 2004, dated 2006).

Experiments:
[1] = tested on: MBr1 anti-Globo H monoclonal antibody (IgM); assay: Microarray analysis of Globo H derivatives with MBr1 antibody; assay type: binding, mouse; settings: sugars spotted on NHS-coated glass slide; FITC secondary antibody
Description: NHS-coated glass slides were spotted with methanolic solutions of sugars 201-204a with concentrations of 5, 10, 20, 30, 40, 50, 60, 80 and 100 µM from bottom to top with ten duplicates horizontally placed in each grid. This attachment procedure is illustrated in FIG. 12. The slide was washed with PBS buffer for one minute.
This solution was added below the printed grid of sugars and then spread through the application of a coverslip. Incubation in a glass humidifying chamber was performed with shaking for 1 hour. Following this, the slide was washed 5x with 0.05 % tween20 / PBS buffer, 5x with PBS buffer and 5x with water. Next, 200 µL of a 70 µg/mL solution of FITC-tagged goat anti-mouse antibody (Cal Biochem) was formed and added to the slide as before. […] A fluorescence scan was then performed on the slide. The resulting image was analyzed using the program Imagene to locate and quantify the fluorescence of all the spots within the grid.
Disulfide linker immobilization (of type 217): The BOC protected derivative of disulfide linker 215 (3.9 mg, 13.5 µmol) was dissolved in 1 mL of dichloromethane and 1 mL trifluoroacetic acid was added. […] These solutions were spotted on a solid surface and analyzed along side 201-204a. […]
Images such as the one shown in FIG. 13 could then be processed using the program Imagene to encircle and quantify the fluorescence of each spot. […]

chST6GalNAc-I = chST6GalNAc-I activity on small acceptor molecules (α-D-galacto derivatives); assay type: biochemical, chicken; settings: substance used as acceptor
Description: The inventors have previously reported the cloning, expression, and characterization of chicken ST6GalNAc-I and its use in preparative synthesis of the O-linked sialoside antigens, STn-, α(2-6)SiaT-, α(2-3)SiaT- and Di-SiaT-antigen. Blixt, O.;Allin, K.;Pereira, L.;Datta, A. and Paulson, J. C., J. Am. Chem. Soc. 2002, 124, 5739-5746. Briefly, the recombinant enzyme was expressed in insect cells and purified by CDP-sepharose affinity chromatography to generate approximately 10 U/L of cell culture. The enzymatic activity was evaluated on a set of small acceptor molecules. […] Table 6. chST6GalNAc-I Activity of α-D-Galacto Derivatives

2G12 antibody = assay: Carbohydrate microarray analysis, microtiter-based, Scatchard plot (Kd); assay type: binding, human; settings: microtiter plate array
Description: Carbohydrate microarray analysis. Ninety-six well NHS-coated microtiter plates (NoAb Biodiscoveries) were treated with 200 µL of a 1 mM methanolic solution of the amino-functionalized disulfide and alkyne containing linker (scheme V) containing 5 % diisopropylethylamine (DIEA) and incubated overnight at 4°C. The microtiter plate was then washed with 2 x 200 µL methanol and 2 x 200 µL water. Next, 200 µL solutions of azido-functionalized oligomannose derivatives 21-25 at varying concentrations from 0 to 500 µM in 5 % DIEA / methanol were introduced. A sprinkle of copper (I) iodide was added and the contents were allowed to react overnight at 4°C. The next day, the contents were removed and the plates were washed with 2 x 200 µL methanol and 2 x 200 µL water. The plates were then blocked with 0.1 % Tween20 solution in HEPES buffer pH 7.5 at 4 °C for 1 hour and then washed with 3 x 200 µL HEPES buffer. Next, 200 µL of a 1 µg/mL solution of 2G12 antibody in 0.1 % Tween20 / PBS buffer was added to the wells for a 1 hour incubation at 4 °C and then washed with 2 x 200 µL PBS buffer. At this point, 200 µL of FITC-tagged goat anti-human IgG antibody (10 µg/mL in PBS, Cal Biochem) was added for 1 hour at 4 °C, and the wells were then washed with 2 x 200 µL PBS buffer. Detection of the FITC-tagged secondary antibody was performed in 200 µL water using a fluorescence plate reader. The resulting data yielded the oligomannose-2G12 binding isotherms and Scatchard plot analysis was implemented in the determination of dissociation constants. Adams et al. (2004) Chem. Biol. 11: 875-81.
Overall, many of the oligomannose derivatives can compete for binding of Man9GlcNAc2, and, therefore, may serve as building blocks for potential immunogens to elicit 2G12-like antibodies. Carbohydrate Microarray Analysis. Previous studies by the inventors using covalent microtiter plates with a panel of carbohydrate epitopes for interaction with 2G12 involved converting the amine-containing oligomannoses 4, 5, 7, 8 and 9 to the corresponding azide derivatives 21, 22, 23, 24 and 25. These derivatives were then covalently attached to a microplate-immobilized cleavable linker via the Cu (I)-catalyzed 1,3-dipolar cycloaddition reaction (FIG. 11B). Kd values for the interaction of 2G12 with oligomannoses 4, 5, 7, 8, 9 (Table 9) were determined using a microtiter-based assay with detection via a fluorescent secondary antibody (see Bryan et al.(2004) J. Am. Chem. Soc. 126, 8640-41). Table 9: The Kd values of oligomannoses 1 and 4, 5, 7, 8, 9 binding to 2G12, as determined by carbohydrate microarray analysis.

[2] = tested on: interaction between 2G12 and gp120; assay: Solution phase ELISA: oligomannose inhibition of 2G12 binding to gp120; parameters: species or system HIV-1; settings: oligomannose at 0.5 mM
Description: Enzyme-linked immunosorbent assay. Microtiter plate wells (flat bottom, Costar type 3690; Corning Inc.) were coated with 50 ng/well gp120JR-CSF overnight at 4°C. All subsequent steps were performed at room temperature. The wells were then washed four times with PBS/0.05% (vol/vol) Tween20 (Sigma) using a microplate washer (SkanWash 400, Molecular Devices) prior to blocking for 1 hr with 3% (mass/vol) BSA. IgG 2G12, diluted to 0.5 µg/mL (25 ng/well) with 1% (mass/vol) BSA/0.02% (vol/vol) Tween20/PBS (PBS-BT), was then added for 2 hrs to the antigen-coated wells in the presence of serially-diluted oligomannoses starting at 2mM. Unbound antibody was removed by washing four times, as described above. Bound 2G12 was detected with an alkaline phosphatase-conjugated goat anti-human IgG F(ab')2 antibody (Pierce) diluted 1:1000 in PBS-BT. After 1hr, the wells were washed four times and bound antibody was visualized with p-nitrophenol phosphate substrate (Sigma) and monitored at 405 nm.
Binding. Man9GlcNAc2 1 and deprotected oligomannoses 2-6 and 7-9 (see FIG. 17) were evaluated for their ability to inhibit the interaction between 2G12 and gp120 in a solution phase enzyme-linked immunosorbent assay (ELISA). […]

C[C@@H]1O[C@@H](O[C@H]2[C@H](OCCCCCN)O[C@H](CO)[C@H](O)[C@@H]2O)[C@@H](O)[C@H](O)[C@@H]1O [Compound 201a]
binding of MBr1 antibody to immobilized sugar (in words) [1]: no recruitment of antibody to the surface

CC(=O)N[C@H]1[C@H](O[C@H]2[C@@H](O)[C@@H](CO)O[C@H](O[C@@H]3[C@H](O)[C@@H](O)[C@H](O[C@H]4[C@H](O)[C@@H](O)[C@H](OCCCCCN)O[C@@H]4CO)O[C@@H]3CO)[C@@H]2O)O[C@H](CO)[C@H](O)[C@@H]1O[C@@H]1O[C@H](CO)[C@H](O)[C@H](O)[C@H]1O[C@@H]1O[C@@H](C)[C@@H](O)[C@@H](O)[C@@H]1O [Compound 204a]
binding of MBr1 antibody to immobilized sugar (in words) [1]: greatest affinity

CC(=O)N[C@H]1C(O)O[C@H](CO)[C@H](O)[C@@H]1O (stereo partly drawn) [D-GalNAc]
chST6GalNAc-I Activity, cpm (chST6GalNAc-I): 0 cpm
chST6GalNAc-I Activity, nmol/mg x min^-1 (chST6GalNAc-I): 0.00 nmol/mg x min^-1

NCCCCCO[C@H]1O[C@H](CO[C@H]2O[C@H](CO)[C@@H](O)[C@H](O)[C@@H]2O[C@H]2O[C@H](CO)[C@@H](O)[C@H](O)[C@@H]2O)[C@@H](O)[C@H](O[C@H]2O[C@H](CO)[C@@H](O)[C@H](O)[C@@H]2O[C@H]2O[C@H](CO)[C@@H](O)[C@H](O)[C@@H]2O)[C@@H]1O [Oligomannose 5]
affinity for 2G12 antibodies (in words) (2G12 antibody): greatest affinity
inhibition (%) of 2G12 binding to gp120 [2]: 37.7%
